# According to the supplement of paper PMC4862054:
# What was measured:
# Details in all cases: incubation time: 72 h
# MFM-223 [1] = test: normalised response (% of control), CellTiter-Glo; higher = more viable cells (100 = DMSO, 0 = benzethonium chloride kill control)
# How it was run: (§1)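 Breast cancer cell lines in 20 µl suspension were added to 384-well plates containing compound at 5 concentrations, spaced in 10-fold steps across a 10,000-fold range chosen for each compound, and incubated for 72 h. CellTox Green fluorescence was read at 485/520 nm, followed by CellTiter-Glo luminescence after 10 min at room temperature. Signals on each plate were normalised so that 0.1 % DMSO equals 100 and a positive kill control equals 0. Every value in the table is the normalised signal at one concentration of the series.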
# MDA-MB-468 [2] = test: as above
# How it was run: as §1
# HCC1599 [3] = test: as above
# How it was run: as §1
# BT-549 [4] = test: as above
# How it was run: as §1
# MCF-10A [5] = test: as above
# How it was run: as §1
# CAL-51 [6] = test: as above
# How it was run: as §1
# Hs578T [7] = test: as above
# How it was run: as §1
# HCC1937 [8] = test: as above
# How it was run: as §1
# CAL-85-1 [9] = test: as above
# How it was run: as §1
# DU-4475 [10] = test: as above
# How it was run: as §1
# CAL-148 [11] = test: as above
# How it was run: as §1
# MDA-MB-231 [12] = test: as above
# How it was run: as §1
# MDA-MB-453 [13] = test: as above
# How it was run: as §1
# HCC1143 [14] = test: as above
# How it was run: as §1
# CAL-120 [15] = test: as above
# How it was run: as §1
# BT-474 [16] = test: as above
# How it was run: as §1
# SK-BR-3 [17] = test: as above
# How it was run: as §1
# MDA-MB-436 [18] = test: as above
# How it was run: as §1
# HDQ-P1 [19] = test: as above
# How it was run: as §1
# MFM-223 [20] = test: normalised response (% of control), CellTox Green; higher = less cell death (100 = DMSO, 0 = benzethonium chloride kill control)
# How it was run: as §1
# MDA-MB-468 [21] = test: as above
# How it was run: as §1
# HCC1599 [22] = test: as above
# How it was run: as §1
# BT-549 [23] = test: as above
# How it was run: as §1
# MCF-10A [24] = test: as above
# How it was run: as §1
# CAL-51 [25] = test: as above
# How it was run: as §1
# Hs578T [26] = test: as above
# How it was run: as §1
# HCC1937 [27] = test: as above
# How it was run: as §1
# CAL-85-1 [28] = test: as above
# How it was run: as §1
# DU-4475 [29] = test: as above
# How it was run: as §1
# CAL-148 [30] = test: as above
# How it was run: as §1
# MDA-MB-231 [31] = test: as above
# How it was run: as §1
# MDA-MB-453 [32] = test: as above
# How it was run: as §1
# HCC1143 [33] = test: as above
# How it was run: as §1
# CAL-120 [34] = test: as above
# How it was run: as §1
# BT-474 [35] = test: as above
# How it was run: as §1
# MDA-MB-436 [36] = test: as above
# How it was run: as §1
# HDQ-P1 [37] = test: as above
# How it was run: as §1
# MFM-223 [38] = test: normalised response (% of control), CellTiter-Glo; higher = more viable cells (100 = DMSO, 0 = benzethonium chloride kill control); remark: listed apart in the source
# Description: (§2)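 DSRT, 72 h incubation, CellTox Green / CellTiter-Glo readout. Signal is normalised to DMSO and benzethonium chloride controls. Value is the normalised response at dose 3.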
# MDA-MB-468 [39] = test: as above; remark: listed apart in the source
# Description: as §2
# HCC1599 [40] = test: as above; remark: listed apart in the source
# Description: as §2
# BT-549 [41] = test: as above; remark: listed apart in the source
# Description: as §2
# MCF-10A [42] = test: as above; remark: listed apart in the source
# Description: as §2
# CAL-51 [43] = test: as above; remark: listed apart in the source
# Description: as §2
# Hs578T [44] = test: as above; remark: listed apart in the source
# Description: as §2
# HCC1937 [45] = test: as above; remark: listed apart in the source
# Description: as §2
# CAL-85-1 [46] = test: as above; remark: listed apart in the source
# Description: as §2
# DU-4475 [47] = test: as above; remark: listed apart in the source
# Description: as §2
# CAL-148 [48] = test: as above; remark: listed apart in the source
# Description: as §2
# MDA-MB-231 [49] = test: as above; remark: listed apart in the source
# Description: as §2
# MDA-MB-453 [50] = test: as above; remark: listed apart in the source
# Description: as §2
# HCC1143 [51] = test: as above; remark: listed apart in the source
# Description: as §2
# CAL-120 [52] = test: as above; remark: listed apart in the source
# Description: as §2
# BT-474 [53] = test: as above; remark: listed apart in the source
# Description: as §2
# SK-BR-3 [54] = test: as above; remark: listed apart in the source
# Description: as §2
# MDA-MB-436 [55] = test: as above; remark: listed apart in the source
# Description: as §2
# HDQ-P1 [56] = test: as above; remark: listed apart in the source
# Description: as §2
Structure (SMILES),normalised response (MFM-223 [1]),normalised response (MDA-MB-468 [2]),normalised response (HCC1599 [3]),normalised response (BT-549 [4]),normalised response (MCF-10A [5]),normalised response (MDA-MB-468 [21]),normalised response (HCC1599 [22]),normalised response (BT-549 [23]),normalised response (MCF-10A [24]),normalised response (CAL-51 [25]),normalised response (HCC1937 [27]),normalised response (CAL-85-1 [28]),normalised response (DU-4475 [29]),normalised response (CAL-148 [30]),normalised response (MDA-MB-231 [31]),normalised response (MDA-MB-453 [32]),normalised response (HCC1143 [33]),normalised response (CAL-120 [34]),normalised response (BT-474 [35]),normalised response (MDA-MB-436 [36]),also measured
CC(=O)O[C@]1(C(C)=O)CC[C@H]2[C@@H]3C=C(C)C4=CC(=O)CC[C@]4(C)[C@H]3CC[C@@]21C [Megestrol acetate] (1000 nM),96.6%,95.4%,111%,109%,121%,141%,96.8%,108%,103%,115%,58.1%,104%,99.1%,104%,110%,105%,116%,101%,97.6%,57.4%,normalised response (CAL-51 [6]): 124%; normalised response (Hs578T [7]): 105%; normalised response (HCC1937 [8]): 110%; normalised response (CAL-85-1 [9]): 100%; normalised response (DU-4475 [10]): 102%; normalised response (CAL-148 [11]): 92.4%; normalised response (MDA-MB-231 [12]): 118%; normalised response (MDA-MB-453 [13]): 95.8%; normalised response (HCC1143 [14]): 103%; normalised response (CAL-120 [15]): 98.2%; normalised response (BT-474 [16]): 111%; normalised response (SK-BR-3 [17]): 93.8%; normalised response (MDA-MB-436 [18]): 101%; normalised response (HDQ-P1 [19]): 104%; normalised response (MFM-223 [20]): 101%; normalised response (Hs578T [26]): 98.8%; normalised response (HDQ-P1 [37]): 106%
O=C(c1ccc(C(=O)N2CCC(N3CCCC3)CC2)c(Nc2ccccc2)c1)N1CCC(N2CCCC2)CC1 [UNC1215] (300 nM),–,–,–,–,–,129%,93.7%,94.4%,86.4%,77.2%,85.9%,98.7%,101%,104%,90.9%,100%,93.9%,101%,101%,65.3%,normalised response (MFM-223 [38]): 97.7%; normalised response (MDA-MB-468 [39]): 90%; normalised response (HCC1599 [40]): 93.2%; normalised response (BT-549 [41]): 96.7%; normalised response (MCF-10A [42]): 94.5%; normalised response (CAL-51 [43]): 62.6%; normalised response (Hs578T [44]): 98%; normalised response (HCC1937 [45]): 92.7%; normalised response (CAL-85-1 [46]): 99.5%; normalised response (DU-4475 [47]): 99.5%; normalised response (CAL-148 [48]): 93.6%; normalised response (MDA-MB-231 [49]): 99.1%; normalised response (MDA-MB-453 [50]): 104%; normalised response (HCC1143 [51]): 95%; normalised response (CAL-120 [52]): 96.7%; normalised response (BT-474 [53]): 98.3%; normalised response (SK-BR-3 [54]): 94%; normalised response (MDA-MB-436 [55]): 99.7%; normalised response (HDQ-P1 [56]): 97.6%
CN1CCC(COc2cnc(-c3cccc(Cn4nc(-c5cccc(C#N)c5)ccc4=O)c3)nc2)CC1 (100 nM),90.5%,90.9%,102%,94%,99.3%,157%,110%,149%,102%,93.3%,125%,95.1%,97.6%,103%,119%,107%,101%,98.9%,97.9%,99.9%,normalised response (CAL-51 [6]): 74%; normalised response (Hs578T [7]): 104%; normalised response (HCC1937 [8]): 97.7%; normalised response (CAL-85-1 [9]): 93.5%; normalised response (DU-4475 [10]): 100%; normalised response (CAL-148 [11]): 100%; normalised response (MDA-MB-231 [12]): 101%; normalised response (MDA-MB-453 [13]): 85.2%; normalised response (HCC1143 [14]): 93.3%; normalised response (CAL-120 [15]): 95.8%; normalised response (BT-474 [16]): 92.7%; normalised response (SK-BR-3 [17]): 82.2%; normalised response (MDA-MB-436 [18]): 93.1%; normalised response (HDQ-P1 [19]): 98.9%; normalised response (MFM-223 [20]): 101%; normalised response (Hs578T [26]): 110%; normalised response (HDQ-P1 [37]): 103%
CCN1CCN(c2ccc(Nc3cc(N(C)C(=O)Nc4c(Cl)c(OC)cc(OC)c4Cl)ncn3)cc2)CC1 [NVP-BGJ398] (100 nM),63.3%,97.1%,102%,94.3%,103%,89.7%,95.3%,99.1%,101%,111%,112%,108%,99.3%,104%,104%,103%,111%,90.8%,98.1%,99.7%,normalised response (CAL-51 [6]): 112%; normalised response (Hs578T [7]): 95.8%; normalised response (HCC1937 [8]): 98.8%; normalised response (CAL-85-1 [9]): 97.3%; normalised response (DU-4475 [10]): 101%; normalised response (CAL-148 [11]): 92.6%; normalised response (MDA-MB-231 [12]): 96.1%; normalised response (MDA-MB-453 [13]): 104%; normalised response (HCC1143 [14]): 97.7%; normalised response (CAL-120 [15]): 84.7%; normalised response (BT-474 [16]): 94.5%; normalised response (SK-BR-3 [17]): 97.5%; normalised response (MDA-MB-436 [18]): 93.4%; normalised response (HDQ-P1 [19]): 101%; normalised response (MFM-223 [20]): 95.7%; normalised response (Hs578T [26]): 91%; normalised response (HDQ-P1 [37]): 73%
CN(C)C/C=C/C(=O)Nc1cc2c(Nc3ccc(F)c(Cl)c3)ncnc2cc1O[C@H]1CCOC1 [Afatinib] (100 nM),106%,87.2%,94.1%,98.5%,32.4%,110%,112%,116%,85.5%,107%,135%,55.7%,101%,102%,113%,102%,111%,101%,81.3%,87%,normalised response (CAL-51 [6]): 118%; normalised response (Hs578T [7]): 108%; normalised response (HCC1937 [8]): 89.8%; normalised response (CAL-85-1 [9]): 65.9%; normalised response (DU-4475 [10]): 98.1%; normalised response (CAL-148 [11]): 75.1%; normalised response (MDA-MB-231 [12]): 103%; normalised response (MDA-MB-453 [13]): 77.3%; normalised response (HCC1143 [14]): 100%; normalised response (CAL-120 [15]): 92.9%; normalised response (BT-474 [16]): 90.6%; normalised response (SK-BR-3 [17]): 27.5%; normalised response (MDA-MB-436 [18]): 98%; normalised response (HDQ-P1 [19]): 64%; normalised response (MFM-223 [20]): 101%; normalised response (Hs578T [26]): 100%; normalised response (HDQ-P1 [37]): 90.9%
